Tests used:
[1] = molecular target: T1, human blood platelet PDE5 (Homo sapiens, UniProt O76074); test: PDE5 enzyme inhibition activity test (scintillation proximity); assay type: biochemical
T1 construct: obtained by suitably treating various tissues and separating the enzyme with FPLC; from tissue; host or cells: human blood platelets
Method: (§1) More specifically, PDE5 and PDE3 were obtained from human blood platelet, and PDE6 was separated from bovine retina. Upon enzyme was separated out, the enzyme inhibition activity test would be carried out immediately. The said enzyme inhibition activity test was performed by directly detecting the scintillation proximity of AMP/GMP using TRKQ7100 and TRKQ7090 kits, which was generally as follows. In the presence of different concentrations of inhibitor and a small amount of substrate, 10 μl of buffer (50 mM Tris/HCl PH 7.5, 8.3 mM MgCl2, 1.7 mM EGTA) was added, and then water was added to a final volume of 100 μl. The reaction was initiated with a fixed amount of enzyme, incubated at 30° C. for 30 min, and then quenched with 50 μl of yttrium silicate beads comprising zinc sulphate. After shaken for 20 min, the reaction mixture was put in dark and settled for 30 min, and then readed on a BECKMAN LS6500 MULTI-PURPOSE SCINTILLATION COUNTER.

[2] = molecular target: T2, PDE6 in bovine retina (Bos taurus, UniProt P11541+P23439); test: PDE6 enzyme inhibition activity test (scintillation proximity); assay type: biochemical; conditions: for IC50: PDE6 separated from bovine retina, read-out: PDE6 IC50; for PDE6 IC50/PDE5 IC50: selectivity, ratio of IC50 PDE6/IC50 PDE5
T2 construct: obtained by suitably treating various tissues and separating the enzyme with FPLC; from tissue; host or cells: bovine retina
T2 sequence (P11541 2-856 limits assumed): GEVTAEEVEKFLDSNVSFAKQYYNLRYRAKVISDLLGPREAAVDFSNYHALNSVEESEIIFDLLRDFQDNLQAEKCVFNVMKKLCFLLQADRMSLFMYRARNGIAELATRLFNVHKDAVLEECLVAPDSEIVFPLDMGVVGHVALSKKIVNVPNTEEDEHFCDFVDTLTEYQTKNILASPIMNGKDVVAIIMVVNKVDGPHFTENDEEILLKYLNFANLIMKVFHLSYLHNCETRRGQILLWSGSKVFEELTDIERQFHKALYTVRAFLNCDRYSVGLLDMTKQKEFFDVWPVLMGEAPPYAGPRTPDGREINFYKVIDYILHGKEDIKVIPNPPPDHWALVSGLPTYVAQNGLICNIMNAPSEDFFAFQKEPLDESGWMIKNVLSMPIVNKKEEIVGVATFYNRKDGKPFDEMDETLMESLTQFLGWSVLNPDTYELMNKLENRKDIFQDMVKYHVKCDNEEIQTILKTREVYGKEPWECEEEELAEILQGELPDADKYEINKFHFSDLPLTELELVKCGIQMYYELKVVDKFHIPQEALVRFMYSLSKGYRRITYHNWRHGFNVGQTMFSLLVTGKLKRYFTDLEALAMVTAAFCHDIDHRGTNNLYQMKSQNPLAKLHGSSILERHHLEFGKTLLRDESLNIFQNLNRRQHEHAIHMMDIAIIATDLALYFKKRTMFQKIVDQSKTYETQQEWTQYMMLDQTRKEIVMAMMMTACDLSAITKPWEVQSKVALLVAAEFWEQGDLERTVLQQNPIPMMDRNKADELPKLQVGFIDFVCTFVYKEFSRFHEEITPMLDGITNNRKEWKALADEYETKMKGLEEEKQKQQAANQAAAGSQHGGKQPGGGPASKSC
T2 sequence (P23439 2-850 limits assumed): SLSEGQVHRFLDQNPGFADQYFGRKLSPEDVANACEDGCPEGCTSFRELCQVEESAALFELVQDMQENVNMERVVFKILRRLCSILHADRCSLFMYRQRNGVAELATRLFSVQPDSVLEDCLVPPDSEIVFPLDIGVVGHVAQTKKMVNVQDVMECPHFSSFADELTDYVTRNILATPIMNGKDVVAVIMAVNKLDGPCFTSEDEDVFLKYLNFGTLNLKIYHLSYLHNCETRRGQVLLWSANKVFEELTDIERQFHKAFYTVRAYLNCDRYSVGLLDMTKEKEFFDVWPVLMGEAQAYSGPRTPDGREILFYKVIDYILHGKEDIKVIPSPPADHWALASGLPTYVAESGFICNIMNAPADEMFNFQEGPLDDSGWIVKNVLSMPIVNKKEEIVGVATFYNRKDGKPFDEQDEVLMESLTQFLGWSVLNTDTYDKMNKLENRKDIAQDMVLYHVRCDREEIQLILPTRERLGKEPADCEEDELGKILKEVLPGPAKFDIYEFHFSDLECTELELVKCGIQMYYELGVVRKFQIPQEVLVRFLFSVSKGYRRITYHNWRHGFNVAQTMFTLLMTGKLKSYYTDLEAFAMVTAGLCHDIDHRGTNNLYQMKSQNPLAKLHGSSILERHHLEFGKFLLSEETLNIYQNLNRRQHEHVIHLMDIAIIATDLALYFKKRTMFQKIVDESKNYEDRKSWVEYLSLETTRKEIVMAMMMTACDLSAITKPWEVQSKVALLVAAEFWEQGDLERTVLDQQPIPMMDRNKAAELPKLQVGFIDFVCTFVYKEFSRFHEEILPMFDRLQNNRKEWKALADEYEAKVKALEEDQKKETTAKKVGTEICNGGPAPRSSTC
Method: as §1

`CCCOc1ccc(C(=O)NCCCS(=O)(=O)N2CCN(C)CC2)cc1-c1nc(CC)c(CC)c(=O)[nH]1` [Example 216, 3-(4,5-diethyl-1,6-dihydro-6-oxopyrimidin-2-yl)-N-(4-methyl-1-piperazinylsulfonylpropyl)-4-n-propoxybenzamide] was tested, and the IC50 ([1]; PDE5 table) was 0.83 nM.

Work on `CCCOc1ccc(NC(=O)CCCNC(C)=O)cc1-c1nc(CC)c(CC)c(=O)[nH]1` [Example 107, 4-Acetamido-N-(3-(4,5-diethyl-1,6-dihydro-6-oxopyrimidin-2-yl)-4-n-propoxyphenyl)butyramide] yielded an IC50 ([1]; PDE5 table) of 0.92 nM, an IC50 ([1]; as repeated in the PDE6 table) of 0.92 nM and an IC50 [2] of 6.42 nM. The “PDE6 IC50/PDE5 IC50” value [2] was 22.64.

Compound `CCCOc1ccc(C(=O)NC(Cc2ccccc2)C(=O)OC)cc1-c1nc(CC)c(CC)c(=O)[nH]1` (stereo not shown) [Example 150, methyl 2-(3-(4,5-diethyl-1,6-dihydro-6-oxopyrimidin-2-yl)-4-n-propoxybenzamido)-3-phenylpropionate] has an IC50 ([1]; PDE5 table) of 0.52 nM, an IC50 ([1]; as repeated in the PDE6 table) of 0.52 nM and an IC50 [2] of 2.78 nM. The “PDE6 IC50/PDE5 IC50” value [2] was 5.3.

Work on `CCCOc1ccc(C(=O)NC(Cc2ccccc2)C(=O)O)cc1-c1nc(CC)c(CC)c(=O)[nH]1` (stereo not shown) [Example 138, 2-(3-(4,5-diethyl-1,6-dihydro-6-oxopyrimidin-2-yl)-4-n-propoxybenzamido)-3-phenylpropionic acid] yielded an IC50 ([1]; PDE5 table) of 0.47 nM, an IC50 ([1]; as repeated in the PDE6 table) of 0.47 nM and an IC50 [2] of 5.42 nM. The “PDE6 IC50/PDE5 IC50” value [2] was 11.4.

Work on `CCCOc1ccc(C(=O)NC2C(O)OC(CO)C(O)C2O)cc1-c1nc(CC)c(CC)c(=O)[nH]1` (stereo not shown) [Example 211] yielded an IC50 ([1]; PDE5 table) of 0.9 nM.

With `CCCOc1ccc(NC(=O)C(F)(F)F)cc1-c1nc(CC)c(CC)c(=O)[nH]1` [Example 98, N-(3-(4,5-diethyl-1,6-dihydro-6-oxopyrimidin-2-yl)-4-n-propoxyphenyl)-2,2,2-trifluoroacetamide] the IC50 ([1]; PDE5 table) was 2.77 nM, the IC50 ([1]; as repeated in the PDE6 table) was 2.77 nM and the IC50 [2] was 10.4 nM. For the same compound, the “PDE6 IC50/PDE5 IC50” value [2] was 3.77.

`CCCOc1ccc(C(=O)NC2CCC(C(=O)OC)NC2)cc1-c1nc(CC)c(CC)c(=O)[nH]1` (stereo not shown) [Example 174, methyl 5-(3-(4,5-diethyl-1,6-dihydro-6-oxopyrimidin-2-yl)-4-n-propoxybenzamido)piperidine-2-formate] was tested, and the IC50 ([1]; PDE5 table) was 0.45 nM, the IC50 ([1]; as repeated in the PDE6 table) was 0.45 nM and the IC50 [2] was 13.7 nM. The “PDE6 IC50/PDE5 IC50” value [2] was 30.3.

Compound `CCCOc1ccc(C(=O)NCCS(=O)(=O)N2CCN(C)CC2)cc1-c1nc(CC)c(CC)c(=O)[nH]1` [Example 213, 3-(4,5-diethyl-1,6-dihydro-6-oxopyrimidin-2-yl)-N-(4-methyl-1-piperazinylsulfonylethyl)-4-n-propoxybenzamide] has an IC50 ([1]; PDE5 table) of 2.8 nM.

Compound `CCCOc1ccc(C(=O)NCCS(N)(=O)=O)cc1-c1nc(CC)c(CC)c(=O)[nH]1` [Example 212, 2-(3-(4,5-diethyl-1,6-dihydro-6-oxopyrimidin-2-yl)-4-n-propoxybenzamido)ethylsulphonamide] has an IC50 ([1]; PDE5 table) of 0.79 nM.

`CCCOc1ccc(NC(=O)CN2CCN(C)CC2)cc1-c1nc(CC)c(CC)c(=O)[nH]1` [Example 179, N-(3-(4,5-diethyl-1,6-dihydro-6-oxopyrimidin-2-yl)-4-n-propoxyphenyl)-2-(4-methylpiperazin-1-yl)acetamide] showed an IC50 [2] of 22.2 nM.

Work on `CCCOc1ccc(S(=O)(=O)NC(CCCN)C(=O)O)cc1-c1nc(CC)c(CC)c(=O)[nH]1` (stereo not shown) [Example 119, 2-(N-(3-(4,5-diethyl-1,6-dihydro-6-oxopyrimidin-2-yl)-4-n-propoxyphenyl)sulfonyl)amino-5-aminovaleric acid] yielded an IC50 ([1]; PDE5 table) of 6.31 nM.

For `CCCOc1ccc(C(=O)NC(CCCN)C(=O)O)cc1-c1nc(CC)c(CC)c(=O)[nH]1` (stereo not shown) [Example 210, 2-(3-(4,5-diethyl-1,6-dihydro-6-oxopyrimidin-2-yl)-4-n-propoxybenzamido)-5-aminovaleric acid], the IC50 ([1]; PDE5 table) was 6.23 nM.

For `CCCOc1ccc(C(=O)NCCCS(N)(=O)=O)cc1-c1nc(CC)c(CC)c(=O)[nH]1` [Example 215, 3-(3-(4,5-diethyl-1,6-dihydro-6-oxopyrimidin-2-yl)-4-n-propoxybenzamido)propylsulphonamide], the IC50 ([1]; PDE5 table) was 0.88 nM.

`CCCOc1ccc(C(=O)NC(C)C(N)=O)cc1-c1nc(CC)c(CC)c(=O)[nH]1` (stereo not shown) [Example 155, N-(1-aminoformylethyl)-3-(4,5-diethyl-1,6-dihydro-6-oxopyrimidin-2-yl)-4-n-propoxybenzamide] was tested, and the IC50 ([1]; PDE5 table) was 0.54 nM.

Work on `CCCOc1ccc(C(=O)NC(CCCNC(=N)N)C(=O)O)cc1-c1nc(CC)c(CC)c(=O)[nH]1` (stereo not shown) [Example 149, 2-(3-(4,5-diethyl-1,6-dihydro-6-oxopyrimidin-2-yl)-4-n-propoxybenzamido)-5-guanidylvaleric acid] yielded an IC50 ([1]; PDE5 table) of 1.8 nM.

Compound `CCCOc1ccc(S(=O)(=O)NC(CCCNC(N)=O)C(=O)O)cc1-c1nc(CC)c(CC)c(=O)[nH]1` (stereo not shown) [Example 118, 2-(N-(3-(4,5-diethyl-1,6-dihydro-6-oxopyrimidin-2-y1)-4-n-propoxyphenyl)sulfonyl)amino-5-ureavaleric acid] has an IC50 ([1]; PDE5 table) of 0.76 nM.

`CCCOc1ccc(C(=O)NC(CCCNC(N)=O)C(=O)O)cc1-c1nc(CC)c(CC)c(=O)[nH]1` (stereo not shown) [Example 209, 2-(3-(4,5-diethyl-1,6-dihydro-6-oxopyrimidin-2-yl)-4-n-propoxybenzamido)-5-ureavaleric acid] gave an IC50 ([1]; PDE5 table) of 0.64 nM.

Compound `CCCOc1ccc(-c2nc(CC)c(CC)c(=O)[nH]2)cc1-c1nc(CC)c(CC)c(=O)[nH]1` [Example 87, 2,2′-(4-n-Propoxy-1,3-phenylene)bis(5,6-diethylpyrimid-4(3H)-one)] has an IC50 ([1]; PDE5 table) of 3.29 nM.

With `CCCOc1ccc(C2OC(CO)C(O)C(O)C2O)cc1-c1nc(CC)c(CC)c(=O)[nH]1` (stereo not shown) [Example 218, 5,6-Diethyl-2-(5-(tetrahydro-3,4,5-trihydroxy-6-(hydroxymethyl)-2H-pyran-2-yl)-2-n-propoxyphenyl)pyrimid-4(3H)-one] the IC50 ([1]; PDE5 table) was 8.63 nM.

`CCCOc1ccc(C(=O)NCCS(=O)(=O)N(CC)CC)cc1-c1nc(CC)c(CC)c(=O)[nH]1` [Example 214, 3-(4,5-diethyl-1,6-dihydro-6-oxopyrimidin-2-yl)-N-(N,N-diethylaminosulfonylethyl)-4-n-propoxybenzamide] showed an IC50 ([1]; PDE5 table) of 1.8 nM.

Work on `CCCOc1ccc(C(=O)NC(C)C(=O)OC)cc1-c1nc(CC)c(CC)c(=O)[nH]1` (stereo not shown) [Example 151, methyl 2-(3-(4,5-diethyl-1,6-dihydro-6-oxopyrimidin-2-yl)-4-n-propoxybenzamido)propionate] yielded an IC50 ([1]; PDE5 table) of 0.54 nM.

`CCCOc1ccc(S(=O)(=O)NC2C(O)OC(CO)C(O)C2O)cc1-c1nc(CC)c(CC)c(=O)[nH]1` (stereo not shown) [Example 208, 5,6-Diethyl-2-(2-n-propoxy-5-((tetrahydro-2,4,5-trihydroxy-6-(hydroxymethyl)-2H-pyran-3-ylamino)sulfonyl)phenyl]pyrimid-4(3H)-one] was tested, and the IC50 ([1]; PDE5 table) was 3.69 nM.

— US8871777B2, “Phenylpyrimidone compounds, the pharmaceutical compositions, preparation methods and uses thereof” (Topharman Shanghai Co., Ltd., priority 2008, dated 2014)
